Laboratory results taken from patent publication US6306636A, “Nucleic acid segments encoding wheat acetyl-CoA carboxylase” (Arch Development Corporation, priority 1997, dated 2001).

Experiments:
[1] = test system: strain MJ 1.12 expressing wheat cytosolic ACCase; test: In vivo growth inhibition of yeast gene-replacement strain expressing wheat cytosolic ACCase; assay type: cell-based, S. cerevisiae; conditions: for effect on growth of gene-replacement strain (in vivo): MJ 1.12, liquid culture, YPR medium with 0.01% galactose
Experimental: The yeast complex medium for vegetative growth contained 1% Bacto-yeast extract, 2% Bacto-peptone, 0.1% adenine sulfate and was supplemented with the following carbon sources: 2% Dextrose in YPD, 2% Raffinose in YPR, 2% galactose and 2% raffinose in YPRG. The yeast synthetic minimal medium (SD) contained 0.17% yeast nitrogen base, 0.5% ammonium sulfate, 2% dextrose, and was supplemented with various additives required for growth: adenine sulfate (10 mg/L), uracil (20 mg/L), histidine (20 mg/L), leucine (200 mg/L) and/or tryptophane (50 mg/L). The SRG medium is identical to SD, with dextrose replaced by 2% raffinose and 2% galactose. 2% bacto-agar was used in solid media. SPII (2% potassium acetate, supplemented with essential amino acids at 7.5 mg/L) and SPIII (0.1% bacto-yeast extract and 2% bacto-agar added to SPII) media for sporulation are described in (Klapholz and Esposito, 1982; Klapholz et al;. 1985). S. cerevisiae strain W303D-ACC1^ΔLEU2 was also obtained from Dr. S. D. Kohlwein. Yeast cells were transformed as described before (Chen et al., 1992) using Frozen-ELZ kit (Zymo Research, Orange Calif.) according to the manufacturer's protocol and transformants were selected using SD plates lacking a marker amino acid. Sporulation was induced in SPII or SPIII medium at 30° C. for 2-3 days. Dissection of asci was performed as described (Guthrie and Fink, 1991). YPD or YPRG plates were used for vegetative growth of ascospore clones following dissection. Galactose-dependent strains (MJ 6.8, 6.9, 1.12 and 1.13) were grown in YPRG medium and other strains in YPD medium, all at 30° C. To measure galactose induction, the strains were grown for ~24 h in YPR medium until all galactose was exhausted (growth of galactose-dependent strains ceased), and then diluted ~100 fold with YPR medium containing various amounts of galactose.
(§1) Sethoxydim and Cethoxydim (CGA215684) were obtained from CIBA-GEIGY and haloxyfop was obtained from DowElanco. To measure inhibition in vivo, galactose-dependent strains were grown in YPR containing 0.01% galactose (to A600 of ~0.5) and then diluted (~100 fold) to the same initial density with fresh YPR medium containing 0.01% galactose and varying amounts of herbicide added as 100-fold concentrated stock solutions in DMSO. ACCase activity in vitro was measured using protein extracts prepared as described (Mitchell et al., 1993) from 25-50 ml cultures of yeast strains MJ 1.12 and MG 9.11 grown for 24-40 h. Cells were suspended in one volume of extraction buffer (0.3 M sorbitol, 0.1 M NaCl, 5 mM MgCl2, 10 mM Tris pH 7.4, supplemented with protease inhibitors: aprotinin (6.6 μ/mL), leupeptin (1.5 μ/mL), pepstatin A (3 μ/mL) and chymostatin (1 μg/mL), and vortexed with 2 volumes of glass beads for 5 min at 4° C. 1/200 volume of 100 mM ethanol solution of phenylmethylsulfonyl fluoride was added twice during extraction. The cell debris were removed by centrifugation and the supenatant (~0.5 ml) was loaded immediately on a 20 ml Sephadex G50 column equilibrated with 100 mM KCl, 20 mM Tris/HCl (pH 7.5), 20% glycerol, 7 mM β-mercaptoethanol. Protein was eluted with the same buffer and stored at -70° C. ACCase activity was measured as described before (Gornicki and Haselkorn, 1993) using aliquots of the column fractions. Herbicides were added to the reaction mixtures (1/10 or 1/20 volume) as a solution in 0.25-0.75 M Tris-HCl, pH8.0 containing 25% DMSO. Wheat germ extract was purchased from Promega.

[2] = test system: T1, wheat cytosolic ACCase expressed in yeast; test: In vitro inhibition of wheat cytosolic ACCase expressed in yeast (gel-filtered crude extract); assay type: biochemical
T1 construct: Full length cDNA encoding wheat cytosolic ACCase was assembled; made in house; host or cells: S. cerevisiae haploid gene-replacement strain MJ 1.12 (crude extract, Sephadex G50)
Experimental: as §1, with “Protein was eluted with the same buffer and stored at -70° C.” left out, “Herbicides were added to the reaction mixtures (1/10 or 1/20 volume) as a solution in 0.25-0.75 M Tris-HCl, pH8.0 containing 25% DMSO. Wheat germ extract was purchased from Promega.” left out

yeast ACCase = biological target: T2, yeast ACCase (Saccharomyces cerevisiae, UniProt Q00955); test: In vitro inhibition of yeast ACCase (gel-filtered crude extract); assay type: biochemical, S. cerevisiae
T2 construct: containing one copy of the yeast ACC1 gene (on the chromosome) and expressing ACCase under its own promoter; endogenous in cells; host or cells: S. cerevisiae haploid strain MJ 9.11 (W303D-derived), crude extract, Sephadex G50
Experimental: as §1, with “Protein was eluted with the same buffer and stored at -70° C.” left out, “Herbicides were added to the reaction mixtures (1/10 or 1/20 volume) as a solution in 0.25-0.75 M Tris-HCl, pH8.0 containing 25% DMSO. Wheat germ extract was purchased from Promega.” left out

[3] = biological target: T3, wheat plastid ACCase (wheat germ extract) (Triticum aestivum, UniProt O48959); test: In vitro inhibition of ACCase in wheat germ extract; assay type: biochemical; conditions: wheat plastid enzyme in wheat germ extract
T3 construct: mixed homoeologues, some cytosolic ACCase present
Experimental: as §1, with “Protein was eluted with the same buffer and stored at -70° C.” left out, “Herbicides were added to the reaction mixtures (1/10 or 1/20 volume) as a solution in 0.25-0.75 M Tris-HCl, pH8.0 containing 25% DMSO. Wheat germ extract was purchased from Promega.” left out

[4] = test system: strain MJ 9.11 expressing yeast ACCase (ACC1); test: In vivo growth inhibition of yeast strain expressing yeast ACCase; assay type: cell-based, S. cerevisiae; conditions: MJ 9.11, 800 μM inhibitor
Experimental: The yeast complex medium for vegetative growth contained 1% Bacto-yeast extract, 2% Bacto-peptone, 0.1% adenine sulfate and was supplemented with the following carbon sources: 2% Dextrose in YPD, 2% Raffinose in YPR, 2% galactose and 2% raffinose in YPRG. The yeast synthetic minimal medium (SD) contained 0.17% yeast nitrogen base, 0.5% ammonium sulfate, 2% dextrose, and was supplemented with various additives required for growth: adenine sulfate (10 mg/L), uracil (20 mg/L), histidine (20 mg/L), leucine (200 mg/L) and/or tryptophane (50 mg/L). The SRG medium is identical to SD, with dextrose replaced by 2% raffinose and 2% galactose. 2% bacto-agar was used in solid media. SPII (2% potassium acetate, supplemented with essential amino acids at 7.5 mg/L) and SPIII (0.1% bacto-yeast extract and 2% bacto-agar added to SPII) media for sporulation are described in (Klapholz and Esposito, 1982; Klapholz et al;. 1985). […]
Sethoxydim and Cethoxydim (CGA215684) were obtained from CIBA-GEIGY and haloxyfop was obtained from DowElanco. […] ACCase activity in vitro was measured using protein extracts prepared as described (Mitchell et al., 1993) from 25-50 ml cultures of yeast strains MJ 1.12 and MG 9.11 grown for 24-40 h. […] ACCase activity was measured as described before (Gornicki and Haselkorn, 1993) using aliquots of the column fractions. […]

[5] = test system: maize ACCase, first minor peak; conditions: 50 μM; first minor peak (Howard and Ridley, 1990); cited from earlier work
[6] = biological target: T4, enzyme from pea chloroplasts (ACCase) (Pisum sativum, UniProt P18823+Q41008); test: In vitro ACCase activity assay, pea chloroplast enzyme; assay type: biochemical; conditions: read-out: 50% inhibition of ACCase activity
T4 construct: the enzyme from pea chloroplasts is relatively resistant; from tissue; host or cells: pea chloroplasts
T4 sequence (P18823 1-590): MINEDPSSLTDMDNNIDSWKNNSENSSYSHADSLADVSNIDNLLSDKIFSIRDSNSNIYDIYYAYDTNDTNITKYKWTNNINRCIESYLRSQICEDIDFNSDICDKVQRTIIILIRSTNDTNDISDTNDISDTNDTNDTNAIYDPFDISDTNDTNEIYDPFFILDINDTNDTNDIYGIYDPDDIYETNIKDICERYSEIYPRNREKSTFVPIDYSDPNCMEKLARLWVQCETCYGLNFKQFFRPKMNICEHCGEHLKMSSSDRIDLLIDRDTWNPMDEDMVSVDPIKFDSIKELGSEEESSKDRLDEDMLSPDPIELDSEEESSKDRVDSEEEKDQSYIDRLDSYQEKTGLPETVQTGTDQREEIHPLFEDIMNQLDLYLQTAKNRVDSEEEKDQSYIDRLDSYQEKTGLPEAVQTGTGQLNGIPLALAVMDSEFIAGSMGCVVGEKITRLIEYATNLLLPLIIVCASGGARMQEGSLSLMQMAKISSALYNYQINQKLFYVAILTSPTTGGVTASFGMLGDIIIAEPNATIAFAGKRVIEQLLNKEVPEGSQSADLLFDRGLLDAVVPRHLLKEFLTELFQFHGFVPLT
T4 sequence (Q41008 51-875): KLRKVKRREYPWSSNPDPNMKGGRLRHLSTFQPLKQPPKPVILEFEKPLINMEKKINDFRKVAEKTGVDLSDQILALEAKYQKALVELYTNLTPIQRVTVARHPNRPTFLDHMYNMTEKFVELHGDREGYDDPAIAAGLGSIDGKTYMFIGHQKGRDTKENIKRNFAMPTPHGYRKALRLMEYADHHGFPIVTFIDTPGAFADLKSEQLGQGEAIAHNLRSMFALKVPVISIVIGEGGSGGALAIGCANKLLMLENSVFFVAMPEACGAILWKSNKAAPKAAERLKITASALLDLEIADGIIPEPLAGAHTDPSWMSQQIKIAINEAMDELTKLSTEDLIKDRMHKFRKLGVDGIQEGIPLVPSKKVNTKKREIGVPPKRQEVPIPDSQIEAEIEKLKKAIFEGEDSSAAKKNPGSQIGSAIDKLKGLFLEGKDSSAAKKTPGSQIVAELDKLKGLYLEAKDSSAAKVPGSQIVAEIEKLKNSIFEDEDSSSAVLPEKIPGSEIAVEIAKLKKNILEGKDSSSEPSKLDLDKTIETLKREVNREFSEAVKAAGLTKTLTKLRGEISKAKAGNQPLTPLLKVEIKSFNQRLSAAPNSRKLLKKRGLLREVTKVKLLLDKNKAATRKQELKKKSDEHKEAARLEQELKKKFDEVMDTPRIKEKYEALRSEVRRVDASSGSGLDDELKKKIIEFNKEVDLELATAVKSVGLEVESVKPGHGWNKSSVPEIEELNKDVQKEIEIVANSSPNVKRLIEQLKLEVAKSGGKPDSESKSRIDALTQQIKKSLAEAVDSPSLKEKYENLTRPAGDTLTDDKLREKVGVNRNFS

[7] = test system: wheat seedling leaves (ACCase, fatty acid synthesis); test: In vivo incorporation of 14C-acetate into fatty acids in cut wheat seedling leaves; set-up: species or system wheat (Triticum aestivum cv. Era); conditions: Triticum aestivum; freshly cut wheat seedling leaves, 4-6 h; read-out: 50% inhibition of in vivo incorporation of 14C-acetate into fatty acids
Experimental: For the in vivo assay of ACCase activity, 2-week old seedlings of wheat (Triticum aestivum cv. Era) were cut about 1 cm below the first leaf and transferred to a 1.5 ml micro tube containing ^14 C-sodium acetate and haloxyfop (Tris salt) for 4-6 h. The leaves were then cut into small pieces and treated with 0.5 ml of 40% KOH for 1 h at 70° C., and then with 0.3 ml of H2 SO4 and 20 μl of 30% TCA on ice. Fatty acids were extracted with three 0.5 ml aliquots of petroleum ether. The organic phase was washed with 1 ml of water. Incorporation of ^14 C-acetate into fatty acids is expressed as the percentage of the total radioactivity taken up by the seedlings. present in the organic phase.

[8] = biological target: T3, wheat plastid ACCase (wheat germ extract); conditions: shown previously (Gornicki and Haselkorn, 1993); cited from earlier work

T3 sequence (O48959 1-2311): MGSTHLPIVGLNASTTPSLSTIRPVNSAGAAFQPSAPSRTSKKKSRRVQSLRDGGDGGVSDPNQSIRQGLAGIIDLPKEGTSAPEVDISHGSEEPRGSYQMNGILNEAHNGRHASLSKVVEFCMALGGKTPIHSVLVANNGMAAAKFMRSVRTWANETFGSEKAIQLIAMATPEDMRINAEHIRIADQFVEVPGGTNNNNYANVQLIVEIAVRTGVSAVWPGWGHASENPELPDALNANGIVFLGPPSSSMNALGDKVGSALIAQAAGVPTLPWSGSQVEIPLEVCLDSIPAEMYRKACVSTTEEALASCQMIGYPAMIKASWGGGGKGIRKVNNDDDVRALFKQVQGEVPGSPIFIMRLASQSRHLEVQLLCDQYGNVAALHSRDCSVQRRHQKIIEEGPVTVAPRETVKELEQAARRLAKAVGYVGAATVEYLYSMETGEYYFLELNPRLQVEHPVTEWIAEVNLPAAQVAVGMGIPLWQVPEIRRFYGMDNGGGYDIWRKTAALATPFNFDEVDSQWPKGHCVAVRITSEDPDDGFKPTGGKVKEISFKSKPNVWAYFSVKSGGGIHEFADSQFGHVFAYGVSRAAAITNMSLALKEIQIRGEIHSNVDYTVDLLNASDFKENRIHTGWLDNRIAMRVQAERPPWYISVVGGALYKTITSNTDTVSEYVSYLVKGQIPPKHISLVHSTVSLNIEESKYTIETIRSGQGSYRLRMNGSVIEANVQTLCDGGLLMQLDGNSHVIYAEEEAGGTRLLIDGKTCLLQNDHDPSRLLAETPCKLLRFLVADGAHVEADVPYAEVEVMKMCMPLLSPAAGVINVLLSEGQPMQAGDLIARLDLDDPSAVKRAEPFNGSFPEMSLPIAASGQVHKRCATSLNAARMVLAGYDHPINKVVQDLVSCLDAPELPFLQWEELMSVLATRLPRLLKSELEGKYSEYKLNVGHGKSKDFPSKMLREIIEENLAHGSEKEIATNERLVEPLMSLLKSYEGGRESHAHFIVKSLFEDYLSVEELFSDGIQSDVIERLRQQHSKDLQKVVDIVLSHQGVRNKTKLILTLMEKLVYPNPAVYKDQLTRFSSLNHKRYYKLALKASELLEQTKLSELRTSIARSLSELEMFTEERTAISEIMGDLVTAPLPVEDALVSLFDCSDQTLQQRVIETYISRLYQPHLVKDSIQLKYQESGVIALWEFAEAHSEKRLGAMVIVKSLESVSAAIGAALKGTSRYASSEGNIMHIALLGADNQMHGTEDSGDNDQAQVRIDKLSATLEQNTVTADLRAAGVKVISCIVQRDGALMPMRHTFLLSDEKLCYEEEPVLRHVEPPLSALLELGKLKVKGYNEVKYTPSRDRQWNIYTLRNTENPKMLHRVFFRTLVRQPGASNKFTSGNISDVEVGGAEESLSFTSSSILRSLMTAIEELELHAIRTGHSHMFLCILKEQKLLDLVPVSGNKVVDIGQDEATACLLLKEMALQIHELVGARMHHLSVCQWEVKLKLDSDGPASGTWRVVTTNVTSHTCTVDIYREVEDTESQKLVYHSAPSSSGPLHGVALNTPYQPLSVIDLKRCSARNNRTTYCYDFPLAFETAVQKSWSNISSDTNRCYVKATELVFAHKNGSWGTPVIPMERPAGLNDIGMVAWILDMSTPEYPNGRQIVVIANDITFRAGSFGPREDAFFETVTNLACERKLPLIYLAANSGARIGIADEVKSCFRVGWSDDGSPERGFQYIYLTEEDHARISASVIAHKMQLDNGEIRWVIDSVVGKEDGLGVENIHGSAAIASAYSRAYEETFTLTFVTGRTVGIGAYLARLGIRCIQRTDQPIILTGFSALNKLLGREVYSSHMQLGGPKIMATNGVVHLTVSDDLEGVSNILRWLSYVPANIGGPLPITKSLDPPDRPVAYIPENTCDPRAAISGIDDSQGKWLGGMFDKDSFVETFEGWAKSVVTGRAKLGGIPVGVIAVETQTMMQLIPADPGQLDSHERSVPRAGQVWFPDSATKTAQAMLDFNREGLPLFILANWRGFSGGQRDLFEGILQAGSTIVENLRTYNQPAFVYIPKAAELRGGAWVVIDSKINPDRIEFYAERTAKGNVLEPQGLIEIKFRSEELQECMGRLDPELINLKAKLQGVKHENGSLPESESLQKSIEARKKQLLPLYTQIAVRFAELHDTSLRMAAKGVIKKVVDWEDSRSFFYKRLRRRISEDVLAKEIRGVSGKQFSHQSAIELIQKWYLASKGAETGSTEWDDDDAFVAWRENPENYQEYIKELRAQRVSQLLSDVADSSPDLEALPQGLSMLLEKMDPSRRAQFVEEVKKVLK
T1 sequence (Q38970 whole entry): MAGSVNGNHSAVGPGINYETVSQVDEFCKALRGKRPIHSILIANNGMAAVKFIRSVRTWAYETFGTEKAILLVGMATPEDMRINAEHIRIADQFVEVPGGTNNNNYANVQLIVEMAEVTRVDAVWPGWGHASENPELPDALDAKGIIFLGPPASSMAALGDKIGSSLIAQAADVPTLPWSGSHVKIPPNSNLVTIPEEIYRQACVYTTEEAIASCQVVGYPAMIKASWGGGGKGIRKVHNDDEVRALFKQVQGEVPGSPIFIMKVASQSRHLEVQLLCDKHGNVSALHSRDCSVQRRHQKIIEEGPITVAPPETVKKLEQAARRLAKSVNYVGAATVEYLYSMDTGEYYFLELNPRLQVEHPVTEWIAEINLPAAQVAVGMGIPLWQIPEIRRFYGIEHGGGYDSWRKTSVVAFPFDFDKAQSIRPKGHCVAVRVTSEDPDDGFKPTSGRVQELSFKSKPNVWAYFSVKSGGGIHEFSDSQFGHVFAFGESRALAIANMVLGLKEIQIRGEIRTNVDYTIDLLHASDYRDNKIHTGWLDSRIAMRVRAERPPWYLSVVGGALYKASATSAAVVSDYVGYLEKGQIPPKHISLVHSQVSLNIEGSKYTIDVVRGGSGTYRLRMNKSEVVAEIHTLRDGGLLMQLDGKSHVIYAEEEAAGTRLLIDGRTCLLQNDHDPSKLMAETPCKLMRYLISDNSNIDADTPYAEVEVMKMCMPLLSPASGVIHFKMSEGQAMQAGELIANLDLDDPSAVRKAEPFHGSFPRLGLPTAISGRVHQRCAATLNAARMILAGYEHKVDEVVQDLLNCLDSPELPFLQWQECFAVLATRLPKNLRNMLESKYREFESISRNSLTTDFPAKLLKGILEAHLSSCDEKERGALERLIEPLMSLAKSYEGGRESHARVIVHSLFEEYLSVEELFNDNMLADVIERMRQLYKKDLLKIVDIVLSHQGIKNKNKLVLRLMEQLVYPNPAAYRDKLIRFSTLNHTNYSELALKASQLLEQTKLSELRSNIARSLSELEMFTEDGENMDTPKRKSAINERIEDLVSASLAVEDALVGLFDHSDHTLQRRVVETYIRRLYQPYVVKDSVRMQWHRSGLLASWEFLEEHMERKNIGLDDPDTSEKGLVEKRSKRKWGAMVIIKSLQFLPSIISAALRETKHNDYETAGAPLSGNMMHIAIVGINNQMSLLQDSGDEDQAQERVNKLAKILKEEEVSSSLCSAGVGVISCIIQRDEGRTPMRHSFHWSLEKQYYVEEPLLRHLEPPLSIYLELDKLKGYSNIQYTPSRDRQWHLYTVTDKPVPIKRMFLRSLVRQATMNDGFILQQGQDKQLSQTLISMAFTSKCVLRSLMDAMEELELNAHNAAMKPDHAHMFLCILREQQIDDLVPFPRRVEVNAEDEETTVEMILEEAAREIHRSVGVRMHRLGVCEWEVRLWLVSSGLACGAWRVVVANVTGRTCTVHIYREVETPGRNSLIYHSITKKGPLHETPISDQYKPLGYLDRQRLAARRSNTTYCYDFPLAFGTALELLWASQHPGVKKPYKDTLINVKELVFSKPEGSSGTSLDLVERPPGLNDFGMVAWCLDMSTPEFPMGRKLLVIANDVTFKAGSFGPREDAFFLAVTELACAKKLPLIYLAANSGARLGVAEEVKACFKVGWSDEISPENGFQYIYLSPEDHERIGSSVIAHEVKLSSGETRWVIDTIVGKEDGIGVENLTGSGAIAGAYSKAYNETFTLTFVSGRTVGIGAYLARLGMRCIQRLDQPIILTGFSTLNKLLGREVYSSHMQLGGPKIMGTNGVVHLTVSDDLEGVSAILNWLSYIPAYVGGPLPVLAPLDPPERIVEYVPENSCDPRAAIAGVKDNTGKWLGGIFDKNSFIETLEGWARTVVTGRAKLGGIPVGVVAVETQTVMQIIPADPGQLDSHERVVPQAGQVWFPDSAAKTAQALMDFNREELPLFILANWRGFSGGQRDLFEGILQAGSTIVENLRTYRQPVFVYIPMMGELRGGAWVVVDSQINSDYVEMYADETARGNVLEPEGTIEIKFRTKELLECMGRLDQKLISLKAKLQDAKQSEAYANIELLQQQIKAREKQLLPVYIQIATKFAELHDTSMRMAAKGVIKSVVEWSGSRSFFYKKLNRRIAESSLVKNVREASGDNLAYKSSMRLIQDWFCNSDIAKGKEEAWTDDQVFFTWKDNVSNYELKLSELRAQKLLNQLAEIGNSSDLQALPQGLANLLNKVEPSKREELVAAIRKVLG

Structure (SMILES)	effect on growth of gene-replacement strain (in vivo) [1]	in vitro inhibition of ACCase activity [2]	in vitro inhibition of ACCase activity (yeast ACCase)	in vitro inhibition of ACCase activity [3]	growth at 800 μM ([1]; MJ 1.12, 800 μM inhibitor)	IC50 ([1]; Saccharomyces cerevisiae, MJ 1.12, YPR medium with 0.01% galactose, A600 24 hrs after inoculation, read-out: 50% inhibition of growth) [µM]	growth at 800 μM [4]	inhibition of ACCase activity [5]	IC50 [6] [µM]	IC50 [7] [µM]	sensitivity of ACCase activity to inhibitor [8]
CCC/C(=N\OCC)C1=C(O)CC(CC(C)SCC)CC1=O (stereo not shown) [Sethoxydim]	no effect	does not inhibit	does not inhibit	weakest inhibitor							
CCC(=NOCC=CCl)C1C(=O)CC(C2(SC)CC2)CC1=O (stereo not shown) [cethoxydim, Cethoxydim]	completely inhibits growth	moderately inhibits	although not completely resistant, is less sensitive	much stronger inhibitor	does not grow at all	~20	unaffected				
CC(Oc1ccc(Oc2ccc(C(F)(F)F)cn2)cc1)C(=O)O (stereo not shown) [fiuazifop, fluazifop]								not inhibited			
CC(Oc1ccc(Oc2ncc(C(F)(F)F)cc2Cl)cc1)C(=O)O (stereo not shown) [haloxyfop]	no effect								> 50	< 1	highly sensitive
